In ChEMBL document CHEMBL5576089, “Discovery of Oxidized p-Terphenyls as Phosphodiesterase 4 Inhibitors from Marine-Derived Fungi” (J Nat Prod, 2024):
Values belong to the compound of their own block, whether it stands above or below them. Calls of active or inactive are those of the source. The rule behind the calls is not given here.

What was measured:
Phosphodiesterase 4 = Phosphodiesterase 4 (Homo sapiens, UniProt P27815+Q08499+Q07343+Q08493); test: Inhibition of PDE4 (unknown origin) using [3H]cAMP[…] as substrate incubated for 15 mins by phosphodiesterase scintillation proximity assay; format: protein assay
MRC5 [1] = test: Anti-fibrotic activity in TGF-beta1-activated human MRC5 cells assessed as reduction in FN1 mRNA level at 10 uM incubated for 48 hrs by RT-qPCR analysis; format: functional, cell-based
MRC5 [2] = test: Anti-fibrotic activity in TGF-beta1-activated human MRC5 cells assessed as reduction in alpha-SMA mRNA level at 10 uM incubated for 48 hrs by RT-qPCR analysis; format: functional, cell-based
MRC5 [3] = test: Anti-fibrotic activity in TGF-beta1-activated human MRC5 cells assessed as reduction in COL1 mRNA level at 10 uM incubated for 48 hrs by RT-qPCR analysis; format: functional, cell-based
RAW264.7 [4] = test: Antiinflammatory activity in LPS-induced mouse RAW264.7 cells assessed as reduction in TNF-alpha mRNA level at 10 to 20 uM preincubated with compound for 4 hrs followed by LPS stimulation and measured after 24 hrs by RT-qPCR analysis; format: functional, cell-based; conditions: dose 10-20 µM, time 28.0 hrs
RAW264.7 [5] = test: Antiinflammatory activity in LPS-induced mouse RAW264.7 cells assessed as reduction in IL-6 mRNA level at 10 to 20 uM preincubated with compound for 4 hrs followed by LPS stimulation and measured after 24 hrs by RT-qPCR analysis; format: functional, cell-based; conditions: dose 10-20 µM, time 28.0 hrs
MRC5 [6] = test: Anti-fibrotic activity in TGF-beta1-activated human MRC5 cells assessed as reduction in COL1 protein expression incubated for 48 hrs by Western blot analysis; format: functional, cell-based; conditions: dose 5-20 µM
MRC5 [7] = test: Anti-fibrotic activity in TGF-beta1-activated human MRC5 cells assessed as reduction in alpha-SMA mRNA level at 5 to 20 uM incubated for 48 hrs by RT-qPCR analysis; format: functional, cell-based; conditions: dose 5-20 µM
MRC5 [8] = test: Anti-fibrotic activity in TGF-beta1-activated human MRC5 cells assessed as reduction in alpha-SMA protein expression incubated for 48 hrs by Western blot analysis; format: functional, cell-based; conditions: dose 5-20 µM
RAW264.7 [9] = test: Antiinflammatory activity in LPS-induced mouse RAW264.7 cells assessed as reduction in IL-1beta mRNA level at 10 to 20 uM preincubated with compound for 4 hrs followed by LPS stimulation and measured after 24 hrs by RT-qPCR analysis; format: functional, cell-based; conditions: dose 10-20 µM, time 28.0 hrs
MRC5 [10] = test: Anti-fibrotic activity in TGF-beta1-activated human MRC5 cells assessed as reduction in alpha-SMA protein expression at 20 uM incubated for 48 hrs by DAPI staining based immunofluorescence microscopic analysis; format: functional, cell-based
MRC5 [11] = test: Anti-fibrotic activity in TGF-beta1-activated human MRC5 cells assessed as reduction in FN1 mRNA level at 5 to 20 uM incubated for 48 hrs by RT-qPCR analysis; format: functional, cell-based; conditions: dose 5-20 µM
MRC5 [12] = test: Anti-fibrotic activity in TGF-beta1-activated human MRC5 cells assessed as reduction in COL1 protein expression at 20 uM incubated for 48 hrs by DAPI staining based immunofluorescence microscopic analysis; format: functional, cell-based
MRC5 [13] = test: Anti-fibrotic activity in TGF-beta1-activated human MRC5 cells assessed as reduction in COL-1 mRNA level at 5 to 20 uM incubated for 48 hrs by RT-qPCR analysis; format: functional, cell-based; conditions: dose 5-20 µM
RAW264.7 [14] = test: Cytotoxicity against mouse RAW264.7 cells assessed as reduction in cell viability at 10 to 160 uM incubated for 48 hrs by CCK8 assay; format: toxicity, cell-based; conditions: raw264.7, 48 h, dose 10-160 µM
NIH3T3 [15] = test: Cytotoxicity against mouse NIH3T3 cells assessed as reduction in cell viability incubated for 48 hrs; format: toxicity, cell-based; conditions: nih3t3, 48 h
NIH3T3 [16] = test: Anti-fibrotic activity in TGF-beta1-induced mouse NIH3T3 cells assessed as reduction in fibronectin expression at 20 uM incubated for 48 hrs by Western blot analysis; format: functional, cell-based
MRC5 [17] = test: Anti-fibrotic activity in TGF-beta1-activated human MRC5 cells assessed as reduction in FN1 protein expression incubated for 48 hrs by Western blot analysis; format: functional, cell-based; conditions: dose 5-20 µM

IC50 (Phosphodiesterase 4): 620 nM
Compound: COc1c(O)c(-c2ccccc2)c(O)c(OC)c1-c1ccc(O)cc1

Compound: Cc1ccc(=O)n(-c2ccccc2)c1
Activity (MRC5 [1]): Active | Activity (MRC5 [2]): Active | Activity (MRC5 [3]): Active

IC50 (Phosphodiesterase 4): 16000 nM
Compound: COc1c(-c2ccc(O)cc2)cc(O)c(-c2ccccc2)c1O

IC50 (Phosphodiesterase 4): 1200 nM
Compound: COc1c(O)c(-c2ccccc2)c(OC(C)=O)c(OC)c1-c1ccccc1
Activity (RAW264.7 [4]): Active | Activity (RAW264.7 [5]): Active | Activity (MRC5 [6]): Dose-Dependent Effect | Activity (MRC5 [7]): Active | Activity (MRC5 [8]): Dose-Dependent Effect | Activity (RAW264.7 [9]): Active | Activity (MRC5 [10]): Active | Activity (MRC5 [11]): Active | Activity (MRC5 [12]): Active | Activity (MRC5 [13]): Active | Activity (RAW264.7 [14]): Non-Toxic | Activity (NIH3T3 [15]): Non-Toxic | Activity (NIH3T3 [16]): Active | Activity (MRC5 [17]): Dose-Dependent Effect

IC50 (Phosphodiesterase 4): 3500 nM
Compound: COc1cc(-c2ccccc2)c(OC)c(O)c1-c1ccc(OCC=C(C)C)c(O)c1

IC50 (Phosphodiesterase 4): 4200 nM
Compound: COc1cc(-c2ccc(O)cc2)c(OC)c(O)c1-c1ccc(O)c(CC=C(C)C)c1 [PRENYLTERPHENYLLIN]

IC50 (Phosphodiesterase 4): 1800 nM
Compound: COc1ccc(-c2c(OC)cc(-c3ccc(O)c(CC=C(C)C)c3)c(OC)c2O)cc1OC

IC50 (Phosphodiesterase 4): 3000 nM
Compound: COc1cc(-c2ccc(O)c(CC=C(C)C)c2)c(OC)c(O)c1-c1ccc(OCC=C(C)C)c(O)c1

IC50 (Phosphodiesterase 4): 400 nM
Compound: COc1c(O)c(-c2ccccc2)c(O)c(OC)c1-c1ccccc1
